# Where two headings read alike, the source gives them in different places.
# Key:
# Assay type in all cases: cell-based
# [1] = biological target: proteins of HEK293T cells transiently overexpressing caspase-6 (Homo sapiens, UniProt Q9UL46); conditions: protein PSME2 (Q9UL46); exp_ref Probe; analysis C6
# [2] = biological target: proteins of HEK293T cells transiently overexpressing caspase-6 (Homo sapiens, UniProt P46379); conditions: exp_ref Probe; protein BAG6 (P46379); analysis C6
# [3] = biological target: proteins of HEK293T cells transiently overexpressing caspase-6 (Homo sapiens, UniProt P31943); conditions: exp_ref Probe; protein HNRNPH1 (P31943); analysis C6
# [4] = biological target: proteins of HEK293T cells transiently overexpressing caspase-6 (Homo sapiens, UniProt P49411); conditions: exp_ref Probe; protein TUFM (P49411); analysis C6
# [5] = biological target: proteins of HEK293T cells transiently overexpressing caspase-6 (Homo sapiens, UniProt P62249); conditions: exp_ref Probe; protein RPS16 (P62249); analysis C6
# [6] = biological target: proteins of HEK293T cells transiently overexpressing caspase-6 (Homo sapiens, UniProt P60900); conditions: exp_ref Probe; protein PSMA6 (P60900); analysis C6
# [7] = biological target: T1, proteins of HEK293T cells transiently overexpressing caspase-6 (Homo sapiens, UniProt O60506); conditions: exp_ref Probe; protein SYNCRIP (O60506); analysis C6
# T1 sequence (O60506 1-623): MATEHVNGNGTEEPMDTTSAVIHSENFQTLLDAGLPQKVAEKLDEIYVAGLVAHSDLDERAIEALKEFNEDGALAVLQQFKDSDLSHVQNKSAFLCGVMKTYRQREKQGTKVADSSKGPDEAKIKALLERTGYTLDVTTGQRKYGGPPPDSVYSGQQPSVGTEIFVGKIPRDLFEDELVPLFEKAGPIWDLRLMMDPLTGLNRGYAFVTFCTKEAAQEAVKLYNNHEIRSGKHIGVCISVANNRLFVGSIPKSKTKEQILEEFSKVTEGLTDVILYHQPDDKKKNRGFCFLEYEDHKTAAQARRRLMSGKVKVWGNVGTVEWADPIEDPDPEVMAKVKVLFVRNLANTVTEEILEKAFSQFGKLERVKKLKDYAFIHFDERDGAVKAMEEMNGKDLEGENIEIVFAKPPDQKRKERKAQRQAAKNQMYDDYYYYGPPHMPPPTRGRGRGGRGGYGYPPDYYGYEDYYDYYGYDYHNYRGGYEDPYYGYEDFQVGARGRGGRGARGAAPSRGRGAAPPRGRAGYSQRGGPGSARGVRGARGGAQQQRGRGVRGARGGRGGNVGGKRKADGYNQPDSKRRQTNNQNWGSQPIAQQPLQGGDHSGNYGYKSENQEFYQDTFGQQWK
# [8] = biological target: proteins of HEK293T cells transiently overexpressing caspase-6 (Homo sapiens, UniProt Q14152); conditions: exp_ref Probe; protein EIF3A (Q14152); analysis C6
# [9] = biological target: T2, proteins of HEK293T cells transiently overexpressing caspase-6 (Homo sapiens, UniProt Q07065); conditions: protein CKAP4 (Q07065)
# T2 sequence (Q07065 1-602): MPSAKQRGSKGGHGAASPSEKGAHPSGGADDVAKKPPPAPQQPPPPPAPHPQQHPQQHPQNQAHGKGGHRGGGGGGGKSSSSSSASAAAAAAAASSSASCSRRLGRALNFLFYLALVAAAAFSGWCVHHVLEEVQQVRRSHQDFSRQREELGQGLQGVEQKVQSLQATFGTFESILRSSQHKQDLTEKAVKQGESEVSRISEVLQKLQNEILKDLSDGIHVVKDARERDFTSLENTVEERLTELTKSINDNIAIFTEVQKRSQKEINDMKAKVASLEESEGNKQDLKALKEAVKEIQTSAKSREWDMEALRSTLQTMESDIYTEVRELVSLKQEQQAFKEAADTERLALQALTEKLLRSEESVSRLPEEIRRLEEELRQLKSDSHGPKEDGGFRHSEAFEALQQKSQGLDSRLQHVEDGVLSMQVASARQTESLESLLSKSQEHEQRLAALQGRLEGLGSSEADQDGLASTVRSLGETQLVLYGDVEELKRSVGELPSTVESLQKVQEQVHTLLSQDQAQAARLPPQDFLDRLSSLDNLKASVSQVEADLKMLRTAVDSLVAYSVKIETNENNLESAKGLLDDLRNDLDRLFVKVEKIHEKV
# [10] = biological target: proteins of HEK293T cells transiently overexpressing caspase-6 (Homo sapiens, UniProt Q14566); conditions: exp_ref Probe; protein MCM6 (Q14566); analysis C6
# [11] = biological target: proteins of HEK293T cells transiently overexpressing caspase-6 (Homo sapiens, UniProt P14174); conditions: Probe; protein MIF P14174
# [12] = biological target: proteins of HEK293T cells transiently overexpressing caspase-6 (Homo sapiens, UniProt P26641); conditions: exp_ref Probe; protein EEF1G (P26641); analysis C6
# [13] = biological target: T3, proteins of HEK293T cells transiently overexpressing caspase-6 (Homo sapiens, UniProt P78417); conditions: protein GSTO1 (P78417)
# T3 sequence (P78417 1-241): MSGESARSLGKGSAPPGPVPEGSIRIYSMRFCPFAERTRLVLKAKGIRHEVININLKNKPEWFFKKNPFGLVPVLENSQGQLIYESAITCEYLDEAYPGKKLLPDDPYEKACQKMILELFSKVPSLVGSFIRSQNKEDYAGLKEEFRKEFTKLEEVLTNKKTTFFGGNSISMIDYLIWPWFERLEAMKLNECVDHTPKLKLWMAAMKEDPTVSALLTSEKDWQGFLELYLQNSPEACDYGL
# [14] = biological target: proteins of HEK293T cells transiently overexpressing caspase-6 (Homo sapiens, UniProt O00541); conditions: protein PES1 (O00541); exp_ref Probe; analysis C6
# proteins of HEK293T cells transiently overexpressing caspase-6 (Homo sapiens, UniProt O00541), sequence (O00541 whole entry, looked up): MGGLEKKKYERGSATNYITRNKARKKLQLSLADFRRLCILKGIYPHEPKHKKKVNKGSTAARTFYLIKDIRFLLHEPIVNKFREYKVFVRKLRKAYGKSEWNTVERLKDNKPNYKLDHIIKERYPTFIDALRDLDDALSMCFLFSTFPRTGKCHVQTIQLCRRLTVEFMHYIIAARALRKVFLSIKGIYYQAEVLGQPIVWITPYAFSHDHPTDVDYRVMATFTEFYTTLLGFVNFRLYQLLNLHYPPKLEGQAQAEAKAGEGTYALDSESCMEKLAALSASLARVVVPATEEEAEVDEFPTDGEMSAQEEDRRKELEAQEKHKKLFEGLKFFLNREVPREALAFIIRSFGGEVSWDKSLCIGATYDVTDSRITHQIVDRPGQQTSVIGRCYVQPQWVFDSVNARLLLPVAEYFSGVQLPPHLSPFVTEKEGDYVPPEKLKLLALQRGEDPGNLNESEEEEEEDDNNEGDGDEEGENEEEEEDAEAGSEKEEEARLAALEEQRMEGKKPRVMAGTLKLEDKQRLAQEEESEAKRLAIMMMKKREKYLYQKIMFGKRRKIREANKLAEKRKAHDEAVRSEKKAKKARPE
# proteins of HEK293T cells transiently overexpressing caspase-6 (Homo sapiens, UniProt Q9UL46), sequence (Q9UL46 whole entry): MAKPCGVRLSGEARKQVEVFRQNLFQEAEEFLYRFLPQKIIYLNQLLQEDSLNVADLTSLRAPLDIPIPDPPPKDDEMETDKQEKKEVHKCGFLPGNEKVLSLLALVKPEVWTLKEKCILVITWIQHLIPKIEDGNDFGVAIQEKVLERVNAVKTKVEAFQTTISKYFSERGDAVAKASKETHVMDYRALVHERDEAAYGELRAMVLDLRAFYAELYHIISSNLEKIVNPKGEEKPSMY
# proteins of HEK293T cells transiently overexpressing caspase-6 (Homo sapiens, UniProt P60900), sequence (P60900 whole entry): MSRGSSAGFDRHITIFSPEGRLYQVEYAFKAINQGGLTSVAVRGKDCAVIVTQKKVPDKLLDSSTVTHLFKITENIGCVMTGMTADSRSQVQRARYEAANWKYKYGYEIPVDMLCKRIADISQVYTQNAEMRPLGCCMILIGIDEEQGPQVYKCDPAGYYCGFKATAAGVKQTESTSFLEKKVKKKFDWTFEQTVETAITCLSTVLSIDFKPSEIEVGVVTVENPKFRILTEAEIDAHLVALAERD
# proteins of HEK293T cells transiently overexpressing caspase-6 (Homo sapiens, UniProt P14174), sequence (P14174 whole entry): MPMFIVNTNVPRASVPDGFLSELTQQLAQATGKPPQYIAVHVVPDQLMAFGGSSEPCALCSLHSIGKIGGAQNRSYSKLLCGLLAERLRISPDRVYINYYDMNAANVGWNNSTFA
# proteins of HEK293T cells transiently overexpressing caspase-6 (Homo sapiens, UniProt Q14566), sequence (Q14566 whole entry): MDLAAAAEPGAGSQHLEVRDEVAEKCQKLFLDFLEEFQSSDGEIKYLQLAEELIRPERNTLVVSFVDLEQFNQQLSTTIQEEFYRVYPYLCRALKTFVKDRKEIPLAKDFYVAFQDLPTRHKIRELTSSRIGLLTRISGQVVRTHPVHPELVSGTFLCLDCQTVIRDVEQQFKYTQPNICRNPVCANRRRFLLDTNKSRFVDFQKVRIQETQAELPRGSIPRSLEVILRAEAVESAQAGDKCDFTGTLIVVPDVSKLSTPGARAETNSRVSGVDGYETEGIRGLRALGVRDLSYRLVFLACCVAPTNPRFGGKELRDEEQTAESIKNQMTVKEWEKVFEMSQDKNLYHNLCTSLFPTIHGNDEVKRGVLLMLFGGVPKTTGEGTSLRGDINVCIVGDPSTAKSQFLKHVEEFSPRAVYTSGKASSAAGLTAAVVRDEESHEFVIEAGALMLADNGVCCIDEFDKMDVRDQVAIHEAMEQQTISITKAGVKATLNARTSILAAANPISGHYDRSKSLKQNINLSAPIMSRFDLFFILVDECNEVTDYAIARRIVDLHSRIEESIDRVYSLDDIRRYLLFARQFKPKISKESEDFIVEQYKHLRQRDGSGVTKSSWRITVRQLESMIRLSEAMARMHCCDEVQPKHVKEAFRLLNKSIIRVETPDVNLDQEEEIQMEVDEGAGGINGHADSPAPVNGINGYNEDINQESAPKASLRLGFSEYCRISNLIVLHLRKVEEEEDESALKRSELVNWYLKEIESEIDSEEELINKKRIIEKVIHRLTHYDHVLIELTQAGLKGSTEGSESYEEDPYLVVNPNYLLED
# proteins of HEK293T cells transiently overexpressing caspase-6 (Homo sapiens, UniProt P31943), sequence (P31943 whole entry): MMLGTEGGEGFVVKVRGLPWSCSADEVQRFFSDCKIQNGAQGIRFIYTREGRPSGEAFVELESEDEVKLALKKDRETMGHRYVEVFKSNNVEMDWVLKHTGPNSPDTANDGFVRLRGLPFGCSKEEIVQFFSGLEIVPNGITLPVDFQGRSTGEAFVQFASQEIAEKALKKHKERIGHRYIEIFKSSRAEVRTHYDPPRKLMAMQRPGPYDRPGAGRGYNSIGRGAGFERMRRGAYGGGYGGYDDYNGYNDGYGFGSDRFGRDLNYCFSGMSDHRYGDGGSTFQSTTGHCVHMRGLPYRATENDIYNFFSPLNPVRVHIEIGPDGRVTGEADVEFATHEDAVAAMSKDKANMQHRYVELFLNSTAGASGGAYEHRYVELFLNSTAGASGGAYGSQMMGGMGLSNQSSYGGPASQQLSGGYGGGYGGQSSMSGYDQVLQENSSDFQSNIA
# proteins of HEK293T cells transiently overexpressing caspase-6 (Homo sapiens, UniProt P46379), sequence (P46379 whole entry): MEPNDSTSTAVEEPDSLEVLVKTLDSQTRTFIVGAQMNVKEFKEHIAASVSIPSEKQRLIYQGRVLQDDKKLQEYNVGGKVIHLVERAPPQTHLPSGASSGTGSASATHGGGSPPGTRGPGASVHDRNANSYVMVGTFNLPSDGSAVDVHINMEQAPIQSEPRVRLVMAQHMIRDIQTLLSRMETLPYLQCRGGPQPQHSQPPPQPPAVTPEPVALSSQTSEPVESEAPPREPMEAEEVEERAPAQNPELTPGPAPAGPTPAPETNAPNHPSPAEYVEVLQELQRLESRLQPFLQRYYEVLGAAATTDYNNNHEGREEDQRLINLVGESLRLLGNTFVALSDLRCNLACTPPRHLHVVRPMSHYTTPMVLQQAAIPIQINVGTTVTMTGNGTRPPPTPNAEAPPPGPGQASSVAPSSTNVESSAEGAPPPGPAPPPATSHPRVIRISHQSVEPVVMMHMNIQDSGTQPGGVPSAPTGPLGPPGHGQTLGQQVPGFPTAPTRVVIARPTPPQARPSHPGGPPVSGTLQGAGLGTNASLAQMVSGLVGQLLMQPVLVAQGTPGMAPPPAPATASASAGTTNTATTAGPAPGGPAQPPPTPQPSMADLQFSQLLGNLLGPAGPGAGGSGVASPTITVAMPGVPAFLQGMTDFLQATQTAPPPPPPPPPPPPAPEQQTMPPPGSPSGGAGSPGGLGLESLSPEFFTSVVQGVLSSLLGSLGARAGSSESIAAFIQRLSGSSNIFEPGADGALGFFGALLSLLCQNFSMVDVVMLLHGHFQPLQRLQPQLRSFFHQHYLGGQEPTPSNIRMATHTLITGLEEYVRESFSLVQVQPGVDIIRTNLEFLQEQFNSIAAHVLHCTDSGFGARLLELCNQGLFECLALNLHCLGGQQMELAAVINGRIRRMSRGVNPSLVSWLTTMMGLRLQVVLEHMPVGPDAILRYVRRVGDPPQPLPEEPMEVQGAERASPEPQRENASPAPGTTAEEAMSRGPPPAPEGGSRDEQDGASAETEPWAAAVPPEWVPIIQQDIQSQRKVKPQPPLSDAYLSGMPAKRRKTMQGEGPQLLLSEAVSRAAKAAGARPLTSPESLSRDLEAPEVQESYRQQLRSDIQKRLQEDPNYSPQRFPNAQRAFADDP
# proteins of HEK293T cells transiently overexpressing caspase-6 (Homo sapiens, UniProt P26641), sequence (P26641 whole entry): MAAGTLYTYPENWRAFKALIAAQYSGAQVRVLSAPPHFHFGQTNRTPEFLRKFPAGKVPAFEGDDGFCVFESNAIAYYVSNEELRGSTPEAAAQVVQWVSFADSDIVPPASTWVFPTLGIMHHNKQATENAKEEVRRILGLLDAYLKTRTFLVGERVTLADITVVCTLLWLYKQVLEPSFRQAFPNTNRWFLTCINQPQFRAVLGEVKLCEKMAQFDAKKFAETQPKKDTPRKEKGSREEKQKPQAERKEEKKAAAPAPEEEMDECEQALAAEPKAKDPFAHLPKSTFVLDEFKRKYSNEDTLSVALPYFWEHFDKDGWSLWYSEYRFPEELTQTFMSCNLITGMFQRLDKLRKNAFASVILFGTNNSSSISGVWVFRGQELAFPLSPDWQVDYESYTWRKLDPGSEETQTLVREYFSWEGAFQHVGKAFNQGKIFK
structure (smiles),measurement,setting,value
C#CCOc1ccc([C@@H]2C[C@@H](C(=O)Nc3ccc(OC(F)(F)F)cc3)CN(S(=O)(=O)C=C)C2)cc1 (relative stereo) [13-t],enrich.exp.med,[1],1.487
same,enrich.exp.med,[2],0.9575
same,enrich.exp.med,[3],-0.1466
same,enrich.exp.med,[4],0.04694
same,enrich.exp.med,[5],-0.2776
same,enrich.exp.med,[6],-0.241
same,enrich.exp.med,[7],0.8584
same,enrich.exp.med,[8],0.8938
same,enrich.exp.med.lin,[9],4.971
same,enrich.exp.med.log2,[9],2.313
same,enrich.exp.med.lin,"[9]; Expt Probe, analysis C6",4.971
same,enrich.exp.med.log2,"[9]; Expt Probe, analysis C6",2.313
same,enrich.exp.med,"[9]; exp_ref Probe, analysis C6",2.313
same,enrich.exp.med,[10],0.05791
same,enrich.exp.med,[11],-1.906
same,enrich.exp.med,[12],0.5675
same,enrich.exp.med,"[13]; exp_ref Probe, analysis C6",0.9115
same,enrich.exp.med.lin,[13],1.881
same,enrich.exp.med.log2,[13],0.9115
same,enrich.exp.med,[14],1.47

# Reference: paper PMC10176470, “Engaging a Non-catalytic Cysteine Residue Drives Potent and Selective Inhibition of Caspase-6” (Journal of the American Chemical Society, 2023)
